Values quoted from earlier work, collected in patent publication EP0496617B1, “Adenosine kinase inhibitors” (priority 1991, dated 1992).

Tests used:
[1] = test system: mice; conditions: cited from earlier work
[2] = test system: guinea pig brain slices; conditions: cited from earlier work
[3] = test system: dog hearts; conditions: cited from earlier work
[4] = test system: isolated rat hearts; conditions: perfused with the compound alone; normoxic, hypoxic, anoxic or ischemic conditions; cited from earlier work
[5] = test system: anesthetized rats; conditions: cited from earlier work
[6] = test system: rat brain slices; conditions: cited from earlier work
[7] = test system: Isolated guinea pig hearts; conditions: added to the perfusion medium in the presence of EHNA; cited from earlier work
[8] = test system: rat cardiomyocytes; conditions: inhibition of ADA together with adenosine kinase; cited from earlier work

| SMILES | body temperature [1] | flaccidity and spontaneous locomotor activity [1] | adenosine uptake [2] | effects in ischemia and reperfusion [3] | perfusate adenosine concentration [4] | blood pressure and heart rate [5] | adenosine uptake [6] | increase of adenosine release [7] [fold] | increase in adenosine release [8] [fold] |
| --- | --- | --- | --- | --- | --- | --- | --- | --- | --- |
| Nc1ncnc2c1c(I)cn2[C@@H]1O[C@H](CO)[C@@H](O)[C@H]1O [5-iodotubercidin, reference compound] | hypothermia | pronounced general flaccidity and much-reduced spontaneous locomotor activity | inhibited | inconsistent effects | no increase in perfusate adenosine concentration | decrease blood pressure and heart rate | inhibited |  |  |
| NC[C@H]1O[C@@H](n2cnc3c(N)ncnc32)[C@H](O)[C@@H]1O [GP-1-238, 5'-amino-5'-deoxyadenosine] |  |  |  |  |  |  |  | 15 | 6 |
